Patent US20160166604A1, “Thiol-Sensitive Positive Inotropes” (priority 2005, published 2016)
Several values for one entry are separate records, joined by “and”; a condition that tells them apart may be missing. Identical values can stand only once.

Assays:
cardiomyocytes = assay: Intracellular thiol quantitation (glutathione S-bimane fluorescence, two-photon microscopy); format: cell-based, mouse; settings: GSH (ethyl ester) 4 mM for 3 hrs, n=40
Text: The cationic potentiometric fluorescent dye tetramethylrhodamine methyl ester (TMRM) was used to monitor changes in ΔΨm as previously described. Cortassa, S. et al., Biophys. J., 87, 2060-2073 (2004). The production of the fluorescent glutathione adduct GSB from the reaction of cell permeant monochlorobimane (MCB) with reduced glutathione (GSH), catalyzed by glutathione S-transferase, was used to measure intracellular glutathione levels, as described. Cortassa, S. et al., Biophys. J., 87, 2060-2073 (2004). Experimental recordings started after exposing the cardiomyocytes to an experimental Tyrode's solution. […] Images were recorded using a two photon laser scanning microscope (Bio-Rad MRC-1024MP) with excitation at 740 nm (Tsunami Ti:Sa laser, Spectra-Physics). The red emission of […] was collected at 605±25 nm and the blue fluorescence of GSB was collected at its maximal emission (480 nm). Images were analyzed offline using ItnageJ software (Wayne Rasband, National Institutes of Health, http://rsb.info.nih.gov/ij/). […]
HNO targets thiol groups on selective proteins. […] Pre-treatment with GSH enhanced intracellular thiol equivalents (+6±1.5% in fluorescence a.u. vs., controls, n=40, p<0.05), as determined by fluorescence assay of glutathione S-bimane production using two-photon microscopy. […]

cAMP = cAMP FRET imaging in neonatal rat cardiomyocytes; format: cell-based; settings: applied after AS
Experimental: Primary cultures of cardiac ventricular myocytes from 1-3 days old Sprague Dawley rats (Charles River Laboratories, Wilmington, Mass.) were prepared as described. Dostal, D. E. et al., Am. J. Physiol., 263, […]-[…] (1992). Cells were transfected with a FRET-based sensor for cAMP (Zaccolo, M. et al., Science, 295, 1711-1715 (2002)) and imaged 48 hrs after transfection. During the experiments, cells were continuously perfused with HEPES buffered Ringer's modified saline (1 mmol/LCaCl2) at room temperature. Cells were imaged on an inverted Olympus IX50 microscope upon excitation at 430 nm. Mongillo, M. et al., Circ. Res., 98, 226-234 (2006). Image analysis was performed by using ImageJ (Rasband, W. S., ImageJ, National Institutes of Health, Bethesda, Md., USA). At each time point, FRET values were measured as the 480 nm/535 nm emission ratio intensity (R) and were normalized to the 480 nm/535 nm value at time 0s (R0). Agents that increase peak Ca^2+ transients coupled to increased sarcomere shortening often do so via a rise in intracellular cAMP and subsequent activation of protein kinase A ([…]. et al., Curr. Med. Chem., 10, 967-981 (2003). To test whether this applied to AS, real-time imaging of cAMP on transfected neonatal rat cardiomyocytes was performed with a cAMP FRET-probe. Zaccolo, M. et al., Science, 295, 1711-1715 (2002). Upon exposure to 1 mM AS, the FRET signal was unchanged (0.3%±0.1%, n=23, p=NS), whereas subsequent application of norepinephrine (10 μM) or phosphodiesterase inhibitor IBMX (100 μM) both increased it by 12% (p<10^-6) (FIG. 2A). Pre-treatment of adult mouse myocytes with the PKA inhibitor […]

CCOC(=O)CNC(=O)[C@H](CS)NC(=O)CC[C@H](N)C(=O)O [GSH, GSH ethyl ester]
increase of intracellular thiol equivalents (fluorescence a.u. vs. controls) (cardiomyocytes): 6% and 6±1.5%

CC(C)Cn1c(=O)n(C)c(=O)c2[nH]cnc21 [IBMX]
increase of cAMP FRET signal (cAMP; IBMX 100 μM): 12%

NC[C@H](O)c1ccc(O)c(O)c1 [norepinephrine]
increase of cAMP FRET signal (cAMP; norepinephrine 10 μM): 12%
